Measurements: ChEMBL document CHEMBL6177948, “Discovery of potential Leonurine-based therapeutic lead MJ210 attenuates Parkinson's disease pathogenesis via NF-κB and MAPK pathways: Mechanistic insights from in vitro and in vivo rotenone models” (Eur J Med Chem, 2025)
The source made the active and inactive calls. The calls are words filed in the database; no cut-off is given here.

Key:
Rattus norvegicus [1] = test: Anti-parkinson activity in rotenone-induced male Wistar rat model assessed as decrease in fall time at 5 mg/kg, ip pretreated with compound every alternative days followed by rotenone addition and measured after 42 days by inverted grid test; format: functional, organism-based; details: time 42.0 day
[2] = Toxicity in male Wistar rat assessed as change in heart morphology at 1 to 10 mg/kg by H and E staining based analysis; format: organism-based; details: in vivo, dose 1-10 mg/kg
[3] = target: Transcription factor p65 (Homo sapiens) (UniProt Q04206); test: Inhibition of rotenone-induced NFkappaB p65 translocation from cytosol to nucleus in human SH-SY5Y cells pretreated with compound followed by rotenone addition by DAPI staining based immunocytochemistry analysis; format: cell-based
Transcription factor p65 (Homo sapiens), sequence (Q04206 whole entry): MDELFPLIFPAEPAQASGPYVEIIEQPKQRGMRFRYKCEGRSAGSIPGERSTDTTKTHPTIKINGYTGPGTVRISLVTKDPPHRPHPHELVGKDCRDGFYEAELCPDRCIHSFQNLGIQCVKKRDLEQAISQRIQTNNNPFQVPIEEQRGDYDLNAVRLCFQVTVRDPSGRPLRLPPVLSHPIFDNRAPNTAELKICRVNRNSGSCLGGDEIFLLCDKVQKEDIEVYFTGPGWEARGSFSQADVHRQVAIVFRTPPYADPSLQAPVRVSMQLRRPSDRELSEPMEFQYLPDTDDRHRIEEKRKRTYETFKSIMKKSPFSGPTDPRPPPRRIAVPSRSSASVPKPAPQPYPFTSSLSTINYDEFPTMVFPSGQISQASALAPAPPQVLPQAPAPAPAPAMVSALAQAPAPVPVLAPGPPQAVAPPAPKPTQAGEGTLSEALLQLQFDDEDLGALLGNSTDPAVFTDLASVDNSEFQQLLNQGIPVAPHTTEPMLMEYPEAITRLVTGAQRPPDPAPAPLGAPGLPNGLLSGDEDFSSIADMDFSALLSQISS

Rattus norvegicus [4] = test: Anti-inflammatory activity in rotenone-induced male Wistar rat model assessed as reduction in PGE2 expression level in substantia nigra at 5 mg/kg, ip pretreated with compound every alternative days followed by rotenone addition and measured after 42 days by ELISA; format: functional, organism-based; details: time 42.0 day
Rattus norvegicus [5] = test: Anti-parkinson activity in rotenone-induced neurodegeneration in male Wistar rat model assessed as reduction in necrosis in substantia nigra at 5 mg/kg, ip pretreated with compound every alternative days followed by rotenone addition and measured after 42 days by Nissl staining based analysis; format: functional, organism-based; details: time 42.0 day
Rattus norvegicus [6] = test: Anti-inflammatory activity in rotenone-induced male Wistar rat model assessed as reduction in PGE2 expression level in striatum at 5 mg/kg, ip pretreated with compound every alternative days followed by rotenone addition and measured after 42 days by ELISA; format: functional, organism-based; details: time 42.0 day
SH-SY5Y [7] = test: Inhibition of MAPK signaling pathway in rotenone-induced human SH-SY5Y cells assessed as reduction in ERK1/2 phosphorylation level by ELISA; format: cell-based
Rattus norvegicus [8] = test: Anti-parkinson activity in rotenone-induced neurodegeneration in male Wistar rat model assessed as decrease neuronal damage in striatum at 5 mg/kg, ip pretreated with compound every alternative days followed by rotenone addition and measured after 42 days by Nissl staining based analysis; format: functional, organism-based; details: time 42.0 day
Rattus norvegicus [9] = test: Anti-parkinson activity in rotenone-induced male Wistar rat assessed as increase in TH positive fiber density in […] at 5 mg/kg, ip pretreated with compound every alternative days followed by rotenone addition and measured after 42 days by immunofluorescence staining based analysis; format: functional, organism-based; details: time 42.0 day
Rattus norvegicus [10] = test: Anti-parkinson activity in rotenone-induced neurodegeneration in male Wistar rat model assessed as minimal neuronal loss in cortex at 5 mg/kg, ip pretreated with compound every alternative days followed by rotenone addition and measured after 42 days by H and E staining based analysis; format: functional, organism-based; details: time 42.0 day
SH-SY5Y [11] = test: Anti-inflammatory activity against rotenone-induced human SH-SY5Y cells assessed as reduction in TNF-alpha mRNA expression level by RT-qPCR analysis; format: functional, cell-based
SH-SY5Y [12] = test: Neuroprotective activity against rotenone-induced cytotoxicity in human SH-SY5Y cells assessed as increase in green fluorescence at 5 uM by Calcein-AM and PI staining based fluorescence microscopy analysis; format: functional, cell-based
Rattus norvegicus [13] = test: Anti-parkinson activity in rotenone-induced neurodegeneration in male Wistar rat model assessed as reduced edema in striatum at 5 mg/kg, ip pretreated with compound every alternative days followed by rotenone addition and measured after 42 days by H and E staining based analysis; format: functional, organism-based; details: time 42.0 day
[14] = Toxicity in male Wistar rat assessed as change in kidney morphology at 1 to 10 mg/kg by H and E staining based analysis; format: organism-based; details: in vivo, dose 1-10 mg/kg
[15] = Toxicity in male Wistar rat assessed as change in cellular structure of kidney at 1 to 10 mg/kg by H and E staining based analysis; format: organism-based; details: in vivo, dose 1-10 mg/kg
Rattus norvegicus [16] = test: Anti-parkinson activity in rotenone-induced male Wistar rat model assessed as increase in cage lid hold time at 5 mg/kg, ip pretreated with compound every alternative days followed by rotenone addition and measured after 42 days by inverted grid test; format: functional, organism-based; details: time 42.0 day
SH-SY5Y [17] = test: Neuroprotective activity against rotenone-induced mitochondrial ROS generation in human SH-SY5Y cells assessed as decrease in ROS level at 5 uM preincubated with compound for 24 hrs followed by rotenone addition and measured after 24 hrs by MitoSOX red staining based fluorescence microscopic analysis; format: functional, cell-based; details: time 48.0 hrs
Rattus norvegicus [18] = test: In vivo inhibition of MAPK signaling pathway in rotenone-induced parkinson disease male Wistar rat model assessed as reduction in ERK1/2 phosphorylation level in striatum at 5 mg/kg, ip pretreated with compound every alternative days followed by rotenone addition and measured after 42 days by Western blotting analysis; format: functional, organism-based; details: time 42.0 day
Rattus norvegicus [19] = test: Anti-inflammatory activity in rotenone-induced male Wistar rat model assessed as reduction in COX2 expression level in substantia nigra at 5 mg/kg, ip pretreated with compound every alternative days followed by rotenone addition and measured after 42 days by ELISA; format: functional, organism-based; details: time 42.0 day
Rattus norvegicus [20] = test: Improvement of motor dysfunction in rotenone-induced male Wistar rat model assessed as reduction in number of falls at 5 mg/kg, ip pretreated with compound every alternative days followed by rotenone addition and measured after 42 days by rotarod test; format: functional, organism-based; details: time 42.0 day
Rattus norvegicus [21] = test: Anti-parkinson activity in rotenone-induced male Wistar rat model assessed as improvement in t-total metrics at 5 mg/kg, ip pretreated with compound every alternative days followed by rotenone addition and measured after 42 days by pole test; format: functional, organism-based; details: time 42.0 day
Rattus norvegicus [22] = test: In vivo inhibition of MAPK signaling pathway in rotenone-induced parkinson disease male Wistar rat model assessed as reduction in P-38 phosphorylation level in striatum at 5 mg/kg, ip pretreated with compound every alternative days followed by rotenone addition and measured after 42 days by Western blotting analysis; format: functional, organism-based; details: time 42.0 day
SH-SY5Y [23] = test: Neuroprotective activity against rotenone-induced mitochondrial ROS generation in human SH-SY5Y cells assessed as decrease in ROS level at 5 uM preincubated with compound for 24 hrs followed by rotenone addition and measured after 24 hrs by Mito Tracker staining based fluorescence microscopic analysis; format: functional, cell-based; details: time 48.0 hrs
Rattus norvegicus [24] = test: Anti-inflammatory activity in rotenone-induced male Wistar rat model assessed as reduction in phosphorylated NF-kappaB P65 protein expression level in striatum at 5 mg/kg, ip pretreated with compound every alternative days followed by rotenone addition and measured after 42 days by ELISA; format: functional, organism-based; details: time 42.0 day
Rattus norvegicus [25] = test: Anti-parkinson activity in rotenone-induced neurodegeneration in male Wistar rat model assessed as decrease count of pyknotic cells in cortex at 5 mg/kg, ip pretreated with compound every alternative days followed by rotenone addition and measured after 42 days by H and E staining based analysis; format: functional, organism-based; details: time 42.0 day
[26] = Drug uptake in male Wistar rat brain at 5 mg/kg, ip measured after 6 hrs by HPLC analysis; format: ADME, organism-based; details: in vivo
Rattus norvegicus [27] = test: Anti-parkinson activity in rotenone-induced male Wistar rat model assessed as reduction in climbing time at 5 mg/kg, ip pretreated with compound every alternative days followed by rotenone addition and measured after 42 days by pole test; format: functional, organism-based; details: time 42.0 day
Rattus norvegicus [28] = test: Anti-inflammatory activity in rotenone-induced male Wistar rat model assessed as reduction in COX2 expression level in striatum at 5 mg/kg, ip pretreated with compound every alternative days followed by rotenone addition and measured after 42 days by ELISA; format: functional, organism-based; details: time 42.0 day
SH-SY5Y [29] = test: Inhibition of MAPK signaling pathway in rotenone-induced human SH-SY5Y cells assessed as reduction in JNK phosphorylation level by ELISA; format: cell-based
SH-SY5Y [30] = test: Anti-inflammatory activity against rotenone-induced human SH-SY5Y cells assessed as reduction in IL-6 mRNA expression level by RT-qPCR analysis; format: functional, cell-based
SH-SY5Y [31] = test: Anti-inflammatory activity against rotenone-induced human SH-SY5Y cells assessed as reduction in iNOS mRNA expression level by RT-qPCR analysis; format: functional, cell-based

For `COc1cc(CCC(=O)N2CCCCC2)cc(OC)c1OC(=O)c1ccccn1`, the Activity (Rattus norvegicus [1]) was “Active”, the Activity [2] was “Non-toxic” and the inhibition [3] was “Active”. The Activity (Rattus norvegicus [4]) was “Active”, the Activity (Rattus norvegicus [5]) was “Active” and the Activity (Rattus norvegicus [6]) was “Active”. The inhibition (SH-SY5Y [7]) was “Active”, the Activity (Rattus norvegicus [8]) was “Active” and the Activity (Rattus norvegicus [9]) was “Active”. The Activity (Rattus norvegicus [10]) was “Active”, the Activity (SH-SY5Y [11]) was “Active” and the Activity (SH-SY5Y [12]) was “Active”. The Activity (Rattus norvegicus [13]) was “Active”, the Activity [14] was “Non-toxic” and the Activity [15] was “Non-toxic”. The Activity (Rattus norvegicus [16]) was “Active”, the Activity (SH-SY5Y [17]) was “Active” and the inhibition (Rattus norvegicus [18]) was “Active”. For the same compound, the Activity (Rattus norvegicus [19]) was “Active”, the Activity (Rattus norvegicus [20]) was “Active” and the Activity (Rattus norvegicus [21]) was “Active”. The inhibition (Rattus norvegicus [22]) was “Active”, the Activity (SH-SY5Y [23]) was “Active” and the Activity (Rattus norvegicus [24]) was “Active”. The Activity (Rattus norvegicus [25]) was “Active”, the Drug uptake [26] was “Active” and the Activity (Rattus norvegicus [27]) was “Active”. For the same compound, the Activity (Rattus norvegicus [28]) was “Active”, the inhibition (SH-SY5Y [29]) was “Active” and the Activity (SH-SY5Y [30]) was “Active”. The Activity (SH-SY5Y [31]) was “Active”.
